Laboratory results as given in ChEMBL document CHEMBL4813980, “A novel class of selective non-nucleoside inhibitors of human DNA methyltransferase 3A” (Bioorg Med Chem Lett, 2021).
Calls of active or inactive are those of the source. The calls are words filed in the database; no cut-off is given here.

Experiments:
[1] = molecular target: T1, DNA (cytosine-5)-methyltransferase 3A (Homo sapiens, UniProt Q9Y6K1); assay: Inhibition of human DNMT3A (628 to 912 residues) preincubated for 15 mins followed by DNA addition measured after 30 mins relative to control
[2] = Inhibition of bacterial DNA cytosine methyltransferase M.SssI up to 60 uM preincubated for 15 mins followed by DNA addition measured after 30 mins relative to control; settings: dose microM <=60, time 15.0 min
[3] = molecular target: T1, DNA (cytosine-5)-methyltransferase 3A; assay: Binding affinity to human DNMT3A catalytic domain assessed as inhibition of enzyme-mediated DNA methylation using 3H-AdoMet as substrate incubated for 30 mins
[4] = molecular target: T1, DNA (cytosine-5)-methyltransferase 3A; assay: Binding affinity to human DNMT3A catalytic domain assessed as inhibition of enzyme-mediated DNA methylation using poly dl-dC as substrate incubated for 30 mins
[5] = molecular target: T1, DNA (cytosine-5)-methyltransferase 3A; assay: Uncompetitive inhibition of human DNMT3A using AdoMet as substrate
[6] = molecular target: T1, DNA (cytosine-5)-methyltransferase 3A; assay: Uncompetitive inhibition of human DNMT3A using poly dl-dC as substrate
[7] = molecular target: DNA (cytosine-5)-methyltransferase 1 (Homo sapiens) (UniProt P26358); assay: Inhibition of DNMT1 (unknown origin) up to 6 uM preincubated for 15 mins followed by DNA addition measured after 30 mins relative to control; settings: dose microM <=6, time 15.0 min
[8] = molecular target: T1, DNA (cytosine-5)-methyltransferase 3A; assay: Mixed type inhibition of human DNMT3A using poly dl-dC as substrate
[9] = molecular target: T1, DNA (cytosine-5)-methyltransferase 3A; assay: Mixed type inhibition of human DNMT3A using AdoMet as substrate

T1 sequence (Q9Y6K1 whole entry, looked up, the tested form may be a part): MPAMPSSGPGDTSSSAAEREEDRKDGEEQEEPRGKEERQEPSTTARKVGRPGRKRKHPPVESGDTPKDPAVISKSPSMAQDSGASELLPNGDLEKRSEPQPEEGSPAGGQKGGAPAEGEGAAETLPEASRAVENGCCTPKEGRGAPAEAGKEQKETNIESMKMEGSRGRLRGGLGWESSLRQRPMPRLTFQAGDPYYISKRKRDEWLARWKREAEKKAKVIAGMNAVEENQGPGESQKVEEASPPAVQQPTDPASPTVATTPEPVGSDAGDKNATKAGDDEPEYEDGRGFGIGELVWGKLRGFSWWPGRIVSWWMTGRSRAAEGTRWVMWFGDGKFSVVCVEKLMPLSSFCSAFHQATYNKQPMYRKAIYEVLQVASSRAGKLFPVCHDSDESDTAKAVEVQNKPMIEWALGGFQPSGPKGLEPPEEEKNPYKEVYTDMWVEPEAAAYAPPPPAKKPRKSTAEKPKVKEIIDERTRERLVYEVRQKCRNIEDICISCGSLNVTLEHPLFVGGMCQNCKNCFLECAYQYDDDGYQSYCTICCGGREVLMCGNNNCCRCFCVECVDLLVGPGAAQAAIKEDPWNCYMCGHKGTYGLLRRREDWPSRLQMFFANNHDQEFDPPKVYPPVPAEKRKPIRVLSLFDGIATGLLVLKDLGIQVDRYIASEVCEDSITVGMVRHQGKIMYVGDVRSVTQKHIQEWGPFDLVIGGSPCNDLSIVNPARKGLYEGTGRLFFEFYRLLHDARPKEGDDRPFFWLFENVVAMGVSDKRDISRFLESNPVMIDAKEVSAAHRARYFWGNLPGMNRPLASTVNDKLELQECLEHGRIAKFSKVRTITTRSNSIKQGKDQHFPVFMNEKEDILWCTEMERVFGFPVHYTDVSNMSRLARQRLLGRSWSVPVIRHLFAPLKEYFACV
DNA (cytosine-5)-methyltransferase 1 (Homo sapiens), sequence (P26358 whole entry): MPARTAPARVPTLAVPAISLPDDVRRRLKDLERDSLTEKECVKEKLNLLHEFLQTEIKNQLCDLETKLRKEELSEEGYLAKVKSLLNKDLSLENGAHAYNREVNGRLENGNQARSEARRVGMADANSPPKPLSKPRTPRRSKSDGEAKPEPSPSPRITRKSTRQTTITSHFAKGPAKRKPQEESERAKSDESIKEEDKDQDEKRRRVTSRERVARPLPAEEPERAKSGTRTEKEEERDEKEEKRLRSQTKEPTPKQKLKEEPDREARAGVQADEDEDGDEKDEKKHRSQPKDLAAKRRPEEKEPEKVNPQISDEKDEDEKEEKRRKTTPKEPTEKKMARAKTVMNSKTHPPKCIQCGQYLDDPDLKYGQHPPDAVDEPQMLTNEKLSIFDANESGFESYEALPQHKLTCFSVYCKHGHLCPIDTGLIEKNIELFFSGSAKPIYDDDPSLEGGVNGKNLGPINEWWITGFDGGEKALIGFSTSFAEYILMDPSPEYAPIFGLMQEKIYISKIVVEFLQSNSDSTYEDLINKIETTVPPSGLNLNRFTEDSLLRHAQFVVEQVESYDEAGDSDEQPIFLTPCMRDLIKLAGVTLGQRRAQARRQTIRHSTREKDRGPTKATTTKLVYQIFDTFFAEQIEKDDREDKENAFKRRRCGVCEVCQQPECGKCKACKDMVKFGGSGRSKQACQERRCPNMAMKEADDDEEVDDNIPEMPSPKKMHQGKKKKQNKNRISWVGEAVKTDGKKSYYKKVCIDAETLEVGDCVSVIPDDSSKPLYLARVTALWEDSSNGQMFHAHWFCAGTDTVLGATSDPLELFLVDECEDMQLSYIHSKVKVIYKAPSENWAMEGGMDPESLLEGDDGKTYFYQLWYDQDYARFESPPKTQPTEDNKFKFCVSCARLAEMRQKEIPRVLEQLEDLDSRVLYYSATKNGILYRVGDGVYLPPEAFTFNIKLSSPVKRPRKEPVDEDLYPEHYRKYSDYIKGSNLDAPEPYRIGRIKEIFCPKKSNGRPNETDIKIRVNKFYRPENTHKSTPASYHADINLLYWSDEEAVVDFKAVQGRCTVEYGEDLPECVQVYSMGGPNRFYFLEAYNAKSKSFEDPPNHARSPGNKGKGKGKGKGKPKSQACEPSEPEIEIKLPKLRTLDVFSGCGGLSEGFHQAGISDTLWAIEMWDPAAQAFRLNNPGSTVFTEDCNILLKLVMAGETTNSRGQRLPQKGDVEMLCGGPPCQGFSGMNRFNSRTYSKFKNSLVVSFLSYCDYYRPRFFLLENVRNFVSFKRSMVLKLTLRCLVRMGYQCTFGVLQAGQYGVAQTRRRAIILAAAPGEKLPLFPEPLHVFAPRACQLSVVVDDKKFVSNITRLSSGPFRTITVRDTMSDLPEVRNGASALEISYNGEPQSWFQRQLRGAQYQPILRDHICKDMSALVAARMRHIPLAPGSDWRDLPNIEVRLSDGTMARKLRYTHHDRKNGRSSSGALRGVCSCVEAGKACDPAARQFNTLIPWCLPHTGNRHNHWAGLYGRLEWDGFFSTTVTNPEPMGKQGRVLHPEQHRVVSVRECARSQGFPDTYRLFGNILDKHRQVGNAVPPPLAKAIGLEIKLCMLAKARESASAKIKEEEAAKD

| inhibition [1] | inhibition [2] | Ki [3] [µM] | Ki [4] [µM] | Ki [5] [µM] | Ki [6] [µM] | inhibition [7] | Ki [8] [µM] | Ki [9] [µM] | Structure (SMILES) |
| --- | --- | --- | --- | --- | --- | --- | --- | --- | --- |
| Active | inactive | 13.8 | 16.1 | 9.16 | 11.4 | Active | – | – | COc1ccc(C2=NN(C3CCCCCC3)C(=O)[C@@H]3CC=CC[C@H]23)cc1OCCCCOc1ccc(-c2nnn[nH]2)cc1 |
| – | – | 5.03 | 21.6 | – | – | – | 12.6 | 3.7 | COc1ccc(C2=NN(C3CCCCCC3)C(=O)C2(C)C)cc1OCCCCOc1ccc(-c2nnn[nH]2)cc1 |
| Active | inactive | – | – | – | – | Active | – | – | COc1ccc(C2=NN(C3CCCCCC3)C(=O)C2(C)C)cc1OCCCCOc1ccc(-c2nn[nH]n2)cc1 |
